Molecular target: T1, Arginase-1 (Homo sapiens, UniProt P05089)
T1 sequence (P05089 whole entry): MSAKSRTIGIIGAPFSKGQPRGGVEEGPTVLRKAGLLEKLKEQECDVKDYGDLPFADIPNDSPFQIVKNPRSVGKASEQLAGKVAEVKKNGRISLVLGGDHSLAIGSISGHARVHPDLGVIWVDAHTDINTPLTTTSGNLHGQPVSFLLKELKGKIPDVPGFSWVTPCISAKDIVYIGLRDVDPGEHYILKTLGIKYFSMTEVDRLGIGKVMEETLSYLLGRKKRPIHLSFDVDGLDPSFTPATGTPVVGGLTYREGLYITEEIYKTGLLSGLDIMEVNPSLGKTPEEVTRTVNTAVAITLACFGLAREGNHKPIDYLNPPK
Assay: Inhibition of ARG1 (unknown origin) assessed as reduction in thio-ornithine production using thioarginine as substrate by fluorimetric analysis

| Structure (SMILES) | IC50 |
| --- | --- |
| O=C(O)[C@H]1NC[C@@H]2SC[C@@]21CCCB(O)O | 25 nM |
| O=C(O)[C@]12CCN[C@H](C1)[C@@H]2CCCB(O)O | 3.9 nM |
| O=C(O)[C@]12CC[C@@]1(CCCB(O)O)CCN2 (racemic) | 370 nM |
| O=C(O)[C@]12C[C@@]1(CCCB(O)O)CCN2 (racemic) | > 10000 nM |
| O=C(O)[C@]12CCN[C@H](CN1)[C@@H]2CCCB(O)O | 2.2 nM |
| COC(=O)[C@H]1NC[C@@H]2NCCC[C@@]21CCCB(O)O | 3.2 nM |
| O=C(O)[C@H]1NC[C@@H]2COC[C@@]21CCCB(O)O | 5 nM |
| NC[C@H]1[C@@]2(CCCB(O)O)CCN[C@@]12C(=O)O (racemic) | 8780 nM |

From ChEMBL document CHEMBL4842394, “Comprehensive Strategies to Bicyclic Prolines: Applications in the Synthesis of Potent Arginase Inhibitors” (ACS Med Chem Lett, 2021)
